Data: ChEMBL document CHEMBL4819055, “Discovery of 5-(N-hydroxycarbamimidoyl) benzofuran derivatives as novel indoleamine 2,3-dioxygenase 1 (IDO1) inhibitors” (Bioorg Med Chem Lett, 2021)

Tests used:
[1] = target: T1, Indoleamine 2,3-dioxygenase 1 (Homo sapiens, UniProt P14902); test: Inhibition of IDO1 (unknown origin) assessed as reduction in kynurenine formation using L-tryptophan as substrate by absorbance based analysis
[2] = target: T1, Indoleamine 2,3-dioxygenase 1; test: Inhibition of IDO1 in IFNgamma-stimulated human HeLa cells assessed as reduction in kynurenine formation using L-tryptophan as substrate by absorbance based analysis

T1 sequence (P14902 whole entry): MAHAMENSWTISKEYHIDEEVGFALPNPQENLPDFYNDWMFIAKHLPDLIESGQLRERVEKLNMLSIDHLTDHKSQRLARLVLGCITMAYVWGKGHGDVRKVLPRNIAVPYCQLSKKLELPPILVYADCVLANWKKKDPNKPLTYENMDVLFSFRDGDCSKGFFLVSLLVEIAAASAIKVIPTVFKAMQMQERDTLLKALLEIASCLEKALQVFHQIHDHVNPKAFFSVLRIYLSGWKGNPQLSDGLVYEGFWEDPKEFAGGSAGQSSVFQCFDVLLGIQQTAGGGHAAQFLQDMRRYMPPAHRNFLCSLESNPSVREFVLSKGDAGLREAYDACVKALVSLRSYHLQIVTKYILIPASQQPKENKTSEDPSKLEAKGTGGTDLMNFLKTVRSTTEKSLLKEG

SMILES | IC50 [1] [µM] | IC50 [2] [µM]
COCc1cc2cc(/C(=N\O)Nc3cccc(Br)c3)ccc2o1 | 0.93 | 2.5
O/N=C(/Nc1cccc(F)c1)c1ccc2oc(COCC3CC3)cc2c1 | 2.2 | 8
O/N=C(/Nc1cccc(Oc2ccccc2)c1)c1ccc2occc2c1 | > 30 | > 30
O/N=C(/Nc1cccc(Br)c1)c1ccc2oc3ccccc3c2c1 | 1.3 | 10.8
O/N=C(/NCc1ccc(F)c(Cl)c1)c1ccc2occc2c1 | 22 | 17.6
COCc1cc2cc(/C(=N\O)Nc3cccc(Cl)c3)ccc2o1 | 1 | 2.2
O/N=C(/Nc1cccc(Cl)c1)c1ccc2oc(-c3ccccc3)cc2c1 | 0.9 | 10.8
O/N=C(/Nc1cccc(Cl)c1)c1ccc2oc(COCC3CC3)cc2c1 | 1.5 | 17.6
O/N=C(/Nc1ccc(Cl)c(F)c1)c1ccc2occc2c1 | > 30 | 10.3
O/N=C(/Nc1ccc(F)c(F)c1)c1ccc2occc2c1 | 22.7 | 14
O/N=C(/Nc1cccc(Cl)c1)c1ccc2oc3ccccc3c2c1 | 1.8 | 7.6
O/N=C(/Nc1ccccc1)c1ccc2occc2c1 | > 30 | 19
O/N=C(/Nc1cccc(F)c1)c1ccc2occc2c1 | 32.7 | 20
O/N=C(/NCc1cccc(Cl)c1)c1ccc2occc2c1 | > 30 | 5.8
O/N=C(/Nc1ccc(Cl)cc1)c1ccc2occc2c1 | > 30 | > 30
O=C(NCc1ccccc1)c1cccc(N/C(=N/O)c2ccc3occc3c2)c1 | > 30 | > 30
O/N=C(/Nc1cccc(COc2ccccc2)c1)c1ccc2occc2c1 | > 30 | > 30
O/N=C(/NCc1ccco1)c1ccc2occc2c1 | > 30 | > 30
O=C(NCC1CCCCC1)c1cccc(N/C(=N/O)c2ccc3occc3c2)c1 | > 30 | > 30
CC(=O)c1cccc(N/C(=N/O)c2ccc3occc3c2)c1 | > 30 | > 30
O/N=C(/Nc1ccc(F)c(Br)c1)c1ccc2oc3ccccc3c2c1 | 2.4 | 16.2
O/N=C(/NCc1cccs1)c1ccc2occc2c1 | > 30 | 16.2
O/N=C(/Nc1cccc(Br)c1)c1ccc2oc(COCC3CC3)cc2c1 | 0.4 | 3.2

SMILES | IC50 [1] [µM] | IC50 [2] [µM]
O/N=C(/NCC1CC1)c1ccc2occc2c1 | > 30 | > 30
O/N=C(/Nc1cccc(Cc2ccccc2)c1)c1ccc2occc2c1 | > 30 | > 30
O/N=C(/Nc1cccc(Br)c1)c1ccc2oc(-c3ccccc3)cc2c1 | 0.9 | 8.6
CCCCOc1cccc(N/C(=N/O)c2ccc3occc3c2)c1 | > 30 | > 30
CC1CCN(C(=O)c2cccc(N/C(=N/O)c3ccc4occc4c3)c2)CC1 | > 30 | > 30
COCc1cc2cc(/C(=N\O)Nc3cccc(F)c3)ccc2o1 | 7.1 | 6.1
O/N=C(/Nc1cccc(Cl)c1)c1ccc2occc2c1 | 0.69 | 1.5
O/N=C(/Nc1cccc(-c2ccccc2)c1)c1ccc2occc2c1 | 11 | 11.9
O/N=C(/NCc1cccc(Cl)c1)c1ccc2oc3ccccc3c2c1 | 3.6 | 29.6
O/N=C(/Nc1ccc(F)c(Cl)c1)c1ccc2occc2c1 | 5.2 | 1.8
O/N=C(/Nc1ccc(F)c(Cl)c1)c1ccc2oc3ccccc3c2c1 | 9.6 | 22.8
O/N=C(/Nc1cccc(C(F)(F)F)c1)c1ccc2occc2c1 | 1.2 | 1.9
Cc1ccc(N/C(=N/O)c2ccc3occc3c2)cc1C | > 30 | > 30
COc1cc(N/C(=N/O)c2ccc3oc4ccccc4c3c2)cc(OC)c1 | > 30 | > 30
OCc1cc2cc(/C(=N\O)Nc3cccc(Br)c3)ccc2o1 | 0.71 | 1.2
O/N=C(/Nc1ccc(F)c(Br)c1)c1ccc2occc2c1 | 1.6 | 2.6
O/N=C(/NCc1ccccc1)c1ccc2occc2c1 | > 30 | 28.2
O/N=C(/Nc1ccc(F)c(C(F)(F)F)c1)c1ccc2occc2c1 | 1.2 | 2.2
O/N=C(/Nc1cccc(Br)c1)c1ccc2occc2c1 | 0.44 | 1.1
OCc1cc2cc(/C(=N\O)Nc3cccc(F)c3)ccc2o1 | 1.7 | 2.4
OCc1cc2cc(/C(=N\O)Nc3cccc(Cl)c3)ccc2o1 | 8 | 5.9
O/N=C(/Nc1cccc(F)c1)c1ccc2oc(-c3ccccc3)cc2c1 | 11 | 10.6
